Non-standard residues stand in square brackets, D forms with d. Residues, ends and D or L forms follow the SMILES beside them. *: point of attachment. pY = N[C@@H](Cc1ccc(OP(=O)(O)O)cc1)C(=O)O; Caffeoyl = O=C(/C=C/c1ccc(O)c(O)c1)* Where only a bound is given, the exact number is not on record here.

One experiment concerns the target T1, PTPN11(SH2dom.C-term.) (Homo sapiens, UniProt Q06124).
T1 construct: SH2dom.C-term. denotes SH2 domain closest to C-terminus of protein; made in house; host or cells: HEK293 (transient transfection, unpurified extract)
T1 sequence (Q06124 112-216 limits assumed): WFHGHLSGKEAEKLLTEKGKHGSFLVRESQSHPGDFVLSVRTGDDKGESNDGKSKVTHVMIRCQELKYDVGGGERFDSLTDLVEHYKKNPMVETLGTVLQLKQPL
The experiment is described as follows: biochemical. Conditions: for percent of DMSO vehicle control: primary screen, 10 μM. Type of experiment: binding.

In experiment [1] the test system is STAT6. Further details: method as in Mandal et al., Journal of Medicinal Chemistry, 2015. Conditions: FP; ref Mandal et al., Journal of Medicinal Chemistry, 2015; cited from earlier work.
Another experiment addresses T2, PTPN11(SH2dom.N-term.) (Homo sapiens, UniProt Q06124).
T2 construct: SH2dom.N-term. denotes SH2 domain closest to N-terminus of protein; made in house; host or cells: HEK293 (transient transfection, unpurified extract)
T2 sequence (Q06124 6-102 limits assumed): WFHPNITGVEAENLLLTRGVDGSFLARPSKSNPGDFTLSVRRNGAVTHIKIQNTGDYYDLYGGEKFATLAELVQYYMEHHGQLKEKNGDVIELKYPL
In kind it is binding. As to conditions: primary screen, 10 μM.

The target of a further experiment is T3, CBL (Homo sapiens, UniProt P22681).
T3 construct: the DNA-tagged SH2 domain concentrations used in this study were <0.1 nM; made in house; host or cells: HEK293 (transient transfection; unpurified extract)
T3 sequence (P22681 249-351 limits assumed): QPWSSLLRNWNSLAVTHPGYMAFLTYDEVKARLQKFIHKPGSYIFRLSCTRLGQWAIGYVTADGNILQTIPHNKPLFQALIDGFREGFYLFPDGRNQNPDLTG
The experiment is described as follows: biochemical. Type of experiment: binding.

For experiment [2], the target named is STAT4. Further details: method as in Bai et al., Cancer Cell, 2019. Conditions: FP and BLI; ref Bai et al., Cancer Cell, 2019; cited from earlier work.
The next experiment concerns the target STAT1. Further details: method as in Bai et al., Cancer Cell, 2019. Conditions: FP and BLI; ref Bai et al., Cancer Cell, 2019; cited from earlier work.
The next experiment concerns the target STAT3. Further details: method as in Bai et al., Cancer Cell, 2019. Conditions: FP and BLI; ref Bai et al., Cancer Cell, 2019; cited from earlier work.
The target of a further experiment is STAT2. Further details: method as in Bai et al., Cancer Cell, 2019. Conditions: FP and BLI; ref Bai et al., Cancer Cell, 2019; cited from earlier work.
Experiment [3] deals with STAT6. Further details: method as in Bai et al., Cancer Cell, 2019. Conditions: FP and BLI; ref Bai et al., Cancer Cell, 2019; cited from earlier work.
A further experiment concerns the target SOCS2. Further details: method as in Ramachandran et al., Nature Communications, 2023. Conditions: ITC; ref Ramachandran et al., Nature Communications, 2023; cited from earlier work.
For experiment [4], the target named is STAT5B. Further details: method as in Bai et al., Cancer Cell, 2019. As to conditions: FP and BLI; ref Bai et al., Cancer Cell, 2019; cited from earlier work.
A further experiment addresses STAT5A. Further details: method as in Bai et al., Cancer Cell, 2019. Conditions: FP and BLI; ref Bai et al., Cancer Cell, 2019; cited from earlier work.
Another experiment concerns FYN. Further details: method as in Gay et al., International Journal of Cancer, 1999. Conditions: ELISA; ref Gay et al., International Journal of Cancer, 1999; cited from earlier work. On the technique in general: ELISA stands for enzyme-linked immunosorbent assay.
Another experiment deals with PTPN11 (SH2dom.N-term.). Further details: method as in Gay et al., International Journal of Cancer, 1999. As to conditions: ELISA; ref Gay et al., International Journal of Cancer, 1999; cited from earlier work.
In another experiment the test system is PTPN11 (SH2dom.C-term.). Further details: method as in Gay et al., International Journal of Cancer, 1999. Conditions: ELISA; ref Gay et al., International Journal of Cancer, 1999; cited from earlier work.
The subject of a further experiment is PIK3R1 (SH2dom.N-term.). Further details: method as in Gay et al., International Journal of Cancer, 1999. As to conditions: ELISA; ref Gay et al., International Journal of Cancer, 1999; cited from earlier work.
The subject of the next experiment is GRB2. Further details: method as in Gay et al., International Journal of Cancer, 1999. Conditions: ELISA; ref Gay et al., International Journal of Cancer, 1999; cited from earlier work.
The target of another experiment is T4, ZAP70(SH2dom1.dom2.) (Homo sapiens, UniProt P43403).
T4 sequence (P43403 1-254 limits assumed): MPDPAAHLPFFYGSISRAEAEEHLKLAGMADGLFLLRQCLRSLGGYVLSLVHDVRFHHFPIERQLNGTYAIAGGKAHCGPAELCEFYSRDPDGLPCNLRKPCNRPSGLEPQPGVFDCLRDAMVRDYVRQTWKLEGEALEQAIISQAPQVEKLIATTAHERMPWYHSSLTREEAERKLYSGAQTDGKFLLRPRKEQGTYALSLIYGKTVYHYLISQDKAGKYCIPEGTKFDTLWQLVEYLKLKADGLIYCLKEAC
As to conditions: primary screen, 10 μM.

Experiment [5] addresses STAT6. Further details: method as in earlier work. Conditions: FP; ref Elumalai et al., Angewandte Chemie International Edition, 2015; cited from earlier work.
Experiment [6] deals with STAT4. Further details: method as in earlier work. As to conditions: FP; ref Elumalai et al., Angewandte Chemie International Edition, 2015; cited from earlier work.
Experiment [7] concerns the target STAT5B. Further details: method as in earlier work. As to conditions: FP; ref Elumalai et al., Angewandte Chemie International Edition, 2015; cited from earlier work.

For orientation: Kd means the concentration at which binding is half-saturated. As usually defined, the IC50 is the concentration at which inhibition is half-maximal. As for `C/C(=C\C(=O)N[C@H](C(=O)N1CCC[C@H]1C(=O)N(c1ccccc1)c1ccc(I)cc1)C(C)(C)C)c1ccc(OP(=O)(O)O)cc1` [STAT6-IN-1], the Kd on PTPN11(SH2dom.C-term.) (dose-response, read-out: KD) is 1060 ± 350 nM; on CBL it was 8100 ± 1300 nM. Further, the “percent of DMSO vehicle control” value at PTPN11(SH2dom.C-term.) is 2.1±0.9%; at PTPN11(SH2dom.N-term.), 76.7±1.3%. The concentration for half-maximal inhibition (IC50) in the experiment with STAT6 [1] was 28 nM.
As for `CC[C@H](C)[C@H](NC(=O)[C@H](CCC(=O)O)NC(=O)[C@H](CCC(=O)O)NC(=O)[C@H](Cc1ccc(OP(=O)(O)O)cc1)NC(=O)/C=C/c1ccc(O)c(O)c1)C(=O)N[C@@H](CCC(=O)O)C(=O)O` [Caffeic acid-pYEEIE] (Caffeoyl-[pY]EEIE-OH), the “percent of DMSO vehicle control” value came to 72.6±1.1% at PTPN11(SH2dom.C-term.) and 92.8±10.0% at PTPN11(SH2dom.N-term.). This compound displayed an equilibrium dissociation constant (Kd) on CBL of 11000 nM.
Turning to `CC(=O)N1CC[C@H]2CC[C@@H](C(=O)N[C@@H](CCC(N)=O)C(=O)NC(c3ccccc3)c3ccccc3)N2C(=O)[C@@H](NC(=O)c2cc3cc(C(F)(F)P(=O)(O)O)ccc3[nH]2)C1` [SI-109], the Kd was 1980 nM on STAT4 [2]; 1270 nM on STAT1; 51.2 nM at STAT3; 6630 nM on STAT2; 3370 nM on STAT6 [3]. Also, the entries for the “percent of DMSO vehicle control” value at PTPN11(SH2dom.C-term.) and on PTPN11(SH2dom.N-term.) were 136.9% and 109.2%, respectively.
Turning to `O=C(CCl)Nc1cccc(CNC(=O)[C@H](Cc2ccc(OP(=O)(O)O)cc2)NC(=O)Cc2ccc(F)cc2)c1` [MN551], the “percent of DMSO vehicle control” value was 125.6% at PTPN11(SH2dom.C-term.) and 85.0±0.9% on PTPN11(SH2dom.N-term.). Further, the Kd on SOCS2 was 2180 nM.
Turning to `NC(=O)CC[C@H](NC(=O)[C@@H]1CC[C@@H]2CCN(C(=O)CCCCCC#Cc3cccc4c3CN(C3CCC(=O)NC3=O)C4=O)C[C@H](NC(=O)c3cc4cc(C(F)(F)P(=O)(O)O)ccc4[nH]3)C(=O)N21)C(=O)NC(c1ccccc1)c1ccccc1` (stereo partly shown) [SD-36], the Kd on STAT4 [2] is 804 nM; at STAT5B [4], 11700 nM; at STAT1, 1090 nM; at STAT3 it was 44.4 nM; on STAT5A, 6180 nM; at STAT2, 4880 nM. Besides, the Kd at STAT6 [3] is 11300 nM. For the same compound, the “percent of DMSO vehicle control” value on PTPN11(SH2dom.C-term.) was 104.4±9.8%; at PTPN11(SH2dom.N-term.) it was 89.9±0.7%.
Turning to `CC(=O)N[C@@H](Cc1ccc(CP(=O)(O)O)cc1)C(=O)NC1(C(=O)N[C@@H](CC(N)=O)C(=O)NCCCc2c(O)ccc3ccccc23)CCCCC1` [CGP78850], the IC50 is greater than 50000 nM in the experiment on FYN; greater than 50000 nM in the experiment with PTPN11 (SH2dom.N-term.); greater than 50000 nM with PTPN11 (SH2dom.C-term.); greater than 50000 nM in the experiment on PIK3R1 (SH2dom.N-term.); 40 nM in the experiment on GRB2. The “percent of DMSO vehicle control” value is 127.5±18.4% at PTPN11(SH2dom.C-term.) and 125.2±9.1% at PTPN11(SH2dom.N-term.).
Regarding `CC[C@H](C)[C@H](NC(=O)[C@H](CCC(=O)O)NC(=O)[C@H](CCC(=O)O)NC(=O)[C@H](Cc1ccc(OP(=O)(O)O)cc1)NC(C)=O)C(=O)N[C@@H](CCC(=O)O)C(N)=O` [Ac-pYEEIE-NH2] (Ac-[pY]EEIE-NH2), the “percent of DMSO vehicle control” value on PTPN11(SH2dom.C-term.) is 133.6%; on PTPN11(SH2dom.N-term.), 116.6%; on CBL (primary screen, 10 μM) it was 121.6%; at ZAP70(SH2dom1.dom2.), 134.0%.
What is called Ki is the dissociation constant of the complex between target and ligand, obtained from inhibition or displacement. Consider `O=C(COc1ccc2cc(C(=O)Nc3ccccc3)ccc2c1)NCc1ccc(OP(=O)(O)O)c(OP(=O)(O)O)c1` [Stafib-1], for which the Ki is 3470 nM at STAT6 [5], 3290 nM at STAT4 [6] and 44 nM at STAT5B [7]. The “percent of DMSO vehicle control” value at PTPN11(SH2dom.C-term.) was 99.1±12.9%; on PTPN11(SH2dom.N-term.), 79.2±4.6%.
`CC(C)(C)[C@H](NC(=O)/C=C/c1ccc(OP(=O)(O)O)cc1)C(=O)N1CCC[C@H]1C(=O)N(c1ccccc1)c1ccc(I)cc1` [STAT6-IN-3]: the “percent of DMSO vehicle control” value at PTPN11(SH2dom.C-term.) is reported as 37.9±11.0%; on PTPN11(SH2dom.N-term.), 73.9±34.6%. Also, the IC50 with STAT6 [1] was 44 nM.

The values are drawn from publication PMC12951562, “SH2scan: Mapping SH2 Domain-Ligand Binding Selectivity for Inhibitors and Degraders” (Journal of Medicinal Chemistry, 2026).
